Measured values taken from patent publication US20240287138A1, “CYCLIC PEPTIDES FOR INHIBITING TNF RECEPTOR 1 ACTIVITY” (Merck Sharp & Dohme LLC, priority 2023, published 2024).
Numbered stars: 1 amine (or outer) side, 2 acyl side, 3 side chain; on linkers, the order of the positions; unused ones are H or OH. Bridge positions count the residues as written; N and C are the ends. Square brackets hold non-standard residues; d marks the D form. Peptide text beside a SMILES is read from it. Trp(βS-Me,7-OMe) = COc1cccc2c([C@H](C)[C@H](N)C(=O)O)c[nH]c12; X5 = COc1cccc2[nH]cc([C@H](C)[C@H](N[*:1])C(=O)[*:2])c12; Trp(βS-Me) = C[C@@H](c1c[nH]c2ccccc12)[C@H](N)C(=O)O; Phe(4-CH2COOH) = N[C@@H](Cc1ccc(CC(=O)O)cc1)C(=O)O; Trp(7-Cl) = N[C@@H](Cc1c[nH]c2c(Cl)cccc12)C(=O)O; Phe(3-CONH2) = NC(=O)c1cccc(C[C@H](N)C(=O)O)c1; Phe(4-CONH2) = NC(=O)c1ccc(C[C@H](N)C(=O)O)cc1; Phe(4-COOH) = N[C@@H](Cc1ccc(C(=O)O)cc1)C(=O)O; Trp(7-aza) = N[C@@H](Cc1c[nH]c2ncccc12)C(=O)O; Phe(4-CH2NH2) = NCc1ccc(C[C@H](N)C(=O)O)cc1; Pip(5R-OH) = O=C(O)[C@@H]1CC[C@@H](O)CN1; αMeW = C[C@](N)(Cc1c[nH]c2ccccc12)C(=O)O; 4Pal = N[C@@H](Cc1ccncc1)C(=O)O; NMeE = CN[C@@H](CCC(=O)O)C(=O)O; Cit = NC(=O)NCCC[C@H](N)C(=O)O; NMeS = CN[C@@H](CO)C(=O)O; Pip = O=C(O)[C@@H]1CCCCN1; αMeS = C[C@](N)(CO)C(=O)O; Nle = CCCC[C@H](N)C(=O)O; Sar = CNCC(=O)O

What was measured:
[1] = target: T1, human TNFR1 extracellular domain (ECD) protein (Homo sapiens, UniProt P19438); experiment: SPR binding affinity to captured human TNFR1 ECD
T1 construct: HRV 3C protease cleavage site (C); 6His (C, cleaved yes); made in house; host or cells: Sf21 insect cells (baculovirus), secreted
T1 sequence (P19438 30-211): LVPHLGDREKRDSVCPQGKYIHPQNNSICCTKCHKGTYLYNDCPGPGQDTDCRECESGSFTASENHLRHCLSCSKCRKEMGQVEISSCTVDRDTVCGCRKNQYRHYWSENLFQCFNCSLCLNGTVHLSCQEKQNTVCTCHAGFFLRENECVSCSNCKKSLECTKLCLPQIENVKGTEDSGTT
Summary of the method: (§1)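 Biotinylated avi-tagged human TNFR1 or TNFR2 ECD, expressed in Sf21 insect cells, captured on streptavidin SPR chip; peptide analytes run in 10 mM HEPES pH 7.4, 150 mM NaCl, 3 mM EDTA, 0.05% P20, 2% DMSO. kon and koff measured, affinity KA calculated.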

[2] = target: T2, human soluble TNFR1 (sTNFR1) (Homo sapiens, UniProt P19438); experiment: Human sTNFR1-peptide displacement assay (LanthaScreen Eu TR-FRET binding assay)
T2 construct: made in house; host or cells: Sf21 (baculovirus)
T2 sequence (P19438 with tags, fused parts or gaps): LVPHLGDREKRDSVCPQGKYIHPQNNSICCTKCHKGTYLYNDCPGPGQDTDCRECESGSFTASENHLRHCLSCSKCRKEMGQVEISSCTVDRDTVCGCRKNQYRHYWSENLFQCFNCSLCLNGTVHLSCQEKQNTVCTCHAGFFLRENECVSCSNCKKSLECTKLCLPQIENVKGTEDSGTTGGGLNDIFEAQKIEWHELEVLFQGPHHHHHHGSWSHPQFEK
Summary of the method: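 Readout is the 665/615 nm TR-FRET ratio (Eu anti-His donor, streptavidin-Alexa647 acceptor), normalized to DMSO and saturating displacer, fit by Morrison-based five-parameter logistic for Kd^app. His-tagged sTNFR1 (1-211) prebound to 100 nM biotinylated peptide SEQ ID NO.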

human TNFR2 ECD protein = target: T3, human TNFR2 ECD protein (Homo sapiens, UniProt P20333); experiment: SPR off-target binding (selectivity) to human TNFR2 ECD
T3 construct: HRV 3C protease cleavage site (C); 6His (C, cleaved yes); made in house; host or cells: Sf21 insect cells (baculovirus), secreted
T3 sequence (P20333 23-257): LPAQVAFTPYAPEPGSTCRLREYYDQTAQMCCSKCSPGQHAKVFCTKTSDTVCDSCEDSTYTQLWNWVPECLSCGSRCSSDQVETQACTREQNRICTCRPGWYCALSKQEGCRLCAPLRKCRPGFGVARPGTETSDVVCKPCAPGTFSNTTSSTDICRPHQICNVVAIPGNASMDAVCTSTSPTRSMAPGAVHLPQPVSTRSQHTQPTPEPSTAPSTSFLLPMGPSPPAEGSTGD
Summary of the method: as §1

Row | Compound | Kd [1] | Kd [2] | Kd (human TNFR2 ECD protein) | IC50 [2]
1 | CCCC[C@@H]1NC(=O)CSC[C@@H](C(N)=O)NC(=O)[C@H]([C@@H](C)c2c[nH]c3c(OC)cccc23)NC(=O)CN(C)C(=O)[C@H](Cc2ccc(O)cc2)NC(=O)[C@H](Cc2ccc(C(=O)O)cc2)NC(=O)[C@](C)(CO)NC(=O)[C@H](Cc2c[nH]c3c(Cl)cccc23)NC(=O)[C@H](Cc2ccncc2)NC(=O)[C@H](CC(N)=O)NC(=O)[C@H]2CCCN2C(=O)[C@H](Cc2c[nH]c3ccccc23)NC(=O)[C@@H]2CC[C@@H](O)CN2C(=O)[C@H](Cc2ccncc2)NC1=O [SEQ ID NO. 203] ({CH2CO}-[Nle][4Pal][Pip(5R-OH)]W[dP]N[4Pal][Trp(7-Cl)][αMeS][Phe(4-COOH)]Y[Sar][Trp(βS-Me,7-OMe)]C-NH2; thioether N-14) | 0.1 nM | 0.31 nM | > 1000 nM | 
2 | CCCC[C@@H]1NC(=O)CSC[C@@H](C(N)=O)NC(=O)[C@](C)(Cc2c[nH]c3ccccc23)NC(=O)CN(C)C(=O)[C@H](Cc2ccc(O)cc2)NC(=O)[C@H](Cc2cccc(C(N)=O)c2)NC(=O)[C@](C)(CO)NC(=O)[C@H](Cc2c[nH]c3c(Cl)cccc23)NC(=O)[C@H](Cc2ccncc2)NC(=O)[C@H](CC(N)=O)NC(=O)[C@H](CCC(=O)O)N(C)C(=O)[C@H](Cc2c[nH]c3ncccc23)NC(=O)[C@H](CO)NC(=O)[C@H](Cc2ccc(CN)cc2)NC1=O [SEQ ID NO. 205] ({CH2CO}-[Nle][Phe(4-CH2NH2)]S[Trp(7-aza)][NMeE]N[4Pal][Trp(7-Cl)][αMeS][Phe(3-CONH2)]Y[Sar][αMeW]C-NH2; thioether N-14) | 0.6 nM | 1.01 nM | > 1000 nM | 
3 | CCCC[C@@H]1NC(=O)CSC[C@@H](C(N)=O)NC(=O)[C@H]([C@@H](C)c2c[nH]c3cccc(OC)c23)NC(=O)CN(C)C(=O)[C@H](Cc2ccc(O)cc2)NC(=O)[C@H](Cc2ccc(C(N)=O)cc2)NC(=O)[C@](C)(CO)NC(=O)[C@H](Cc2c[nH]c3c(Cl)cccc23)NC(=O)[C@H](Cc2ccc(C(=O)O)cc2)NC(=O)[C@H](CC(N)=O)NC(=O)[C@H](CCC(=O)O)N(C)C(=O)[C@H](Cc2c[nH]c3ncccc23)NC(=O)[C@H](CO)N(C)C(=O)[C@H](Cc2ccncc2)NC1=O [SEQ ID NO. 209] ({CH2CO}-[Nle][4Pal][NMeS][Trp(7-aza)][NMeE]N[Phe(4-COOH)][Trp(7-Cl)][αMeS][Phe(4-CONH2)]Y[Sar][X5]C-NH2; thioether N-14) | 0.4 nM | 0.67 nM | > 1000 nM | 0.6 nM
4 | CCCC[C@@H]1NC(=O)CSC[C@@H](C(N)=O)NC(=O)[C@H]([C@@H](C)c2c[nH]c3c(OC)cccc23)NC(=O)CN(C)C(=O)[C@H](Cc2ccc(O)cc2)NC(=O)[C@H](Cc2ccc(C(=O)O)cc2)NC(=O)[C@](C)(CO)NC(=O)[C@H](Cc2c[nH]c3c(Cl)cccc23)NC(=O)[C@H](Cc2ccc(CC(=O)O)cc2)NC(=O)[C@H](CC(N)=O)NC(=O)[C@H](CCC(=O)O)N(C)C(=O)[C@H](Cc2c[nH]c3ccccc23)NC(=O)[C@@H]2CCCCN2C(=O)[C@H](Cc2ccncc2)NC1=O [SEQ ID NO. 212] ({CH2CO}-[Nle][4Pal][Pip]W[NMeE]N[Phe(4-CH2COOH)][Trp(7-Cl)][αMeS][Phe(4-COOH)]Y[Sar][Trp(βS-Me,7-OMe)]C-NH2; thioether N-14) | 0.5 nM | 0.73 nM | > 1000 nM | 0.9 nM
5 | C[C@@H](c1c[nH]c2ccccc12)[C@@H]1NC(=O)CN(C)C(=O)[C@H](Cc2c[nH]cn2)NC(=O)[C@H](Cc2ccc(C(=O)O)cc2)NC(=O)[C@](C)(CO)NC(=O)[C@H](Cc2c[nH]c3c(Cl)cccc23)NC(=O)[C@H](Cc2ccc(C(=O)O)cc2)NC(=O)[C@H](CC(N)=O)NC(=O)[C@H]2CCCN2C(=O)[C@H]([C@@H](C)c2c[nH]c3ccccc23)NC(=O)[C@H](CO)NC(=O)[C@H](Cc2ccc(CN)cc2)NC(=O)[C@H](CCCNC(N)=O)NC(=O)CSC[C@@H](C(N)=O)NC1=O [SEQ ID NO. 215] ({CH2CO}-[Cit][Phe(4-CH2NH2)]S[Trp(βS-Me)][dP]N[Phe(4-COOH)][Trp(7-Cl)][αMeS][Phe(4-COOH)]H[Sar][Trp(βS-Me)]C-NH2; thioether N-14) | 1.8 nM |  | > 1000 nM | 2.85 nM
